# Data reported in publication PMC6009961, “Novel 1-(2-pyrimidin-2-yl)piperazine derivatives as selective monoamine oxidase (MAO)-A inhibitors” (Journal of Enzyme Inhibition and Medicinal Chemistry, 2017).
# Entries after “also recorded” stand apart in the source; their conditions may differ.
# How the values were obtained:
# Type in all cases: biochemical
# MAO-A enzyme [1] = biological target: T1, MAO-A enzyme (Homo sapiens, UniProt P21397); test: MAO activity assay, fluorimetric, kynuramine substrate (MAO-A); conditions: for MAO-A versus MAO-B selectivity: from inhibition rates at 10^−4 M
# T1 construct: purchased Sigma-Aldrich Chemicals (St. Louis, MO)
# T1 sequence (P21397 1-527): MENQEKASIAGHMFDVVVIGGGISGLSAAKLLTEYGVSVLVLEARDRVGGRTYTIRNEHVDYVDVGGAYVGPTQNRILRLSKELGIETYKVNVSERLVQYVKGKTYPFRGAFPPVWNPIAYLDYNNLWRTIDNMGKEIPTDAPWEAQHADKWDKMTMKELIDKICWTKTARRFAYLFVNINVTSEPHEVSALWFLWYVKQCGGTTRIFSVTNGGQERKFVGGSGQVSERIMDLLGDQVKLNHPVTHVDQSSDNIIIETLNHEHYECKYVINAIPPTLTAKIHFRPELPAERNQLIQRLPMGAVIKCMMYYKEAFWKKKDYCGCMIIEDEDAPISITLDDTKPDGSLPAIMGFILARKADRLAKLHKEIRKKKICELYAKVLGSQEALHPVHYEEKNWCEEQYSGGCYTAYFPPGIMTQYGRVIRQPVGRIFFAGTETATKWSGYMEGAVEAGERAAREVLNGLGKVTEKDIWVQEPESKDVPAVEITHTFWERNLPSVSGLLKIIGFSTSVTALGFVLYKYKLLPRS
# human recombinant MAO-B = biological target: T2, human recombinant MAO-B (Homo sapiens, UniProt P27338); test: MAO activity assay, fluorimetric, kynuramine substrate (MAO-B)
# T2 construct: purchased Sigma-Aldrich Chemicals (St. Louis, MO)
# T2 sequence (P27338 1-520): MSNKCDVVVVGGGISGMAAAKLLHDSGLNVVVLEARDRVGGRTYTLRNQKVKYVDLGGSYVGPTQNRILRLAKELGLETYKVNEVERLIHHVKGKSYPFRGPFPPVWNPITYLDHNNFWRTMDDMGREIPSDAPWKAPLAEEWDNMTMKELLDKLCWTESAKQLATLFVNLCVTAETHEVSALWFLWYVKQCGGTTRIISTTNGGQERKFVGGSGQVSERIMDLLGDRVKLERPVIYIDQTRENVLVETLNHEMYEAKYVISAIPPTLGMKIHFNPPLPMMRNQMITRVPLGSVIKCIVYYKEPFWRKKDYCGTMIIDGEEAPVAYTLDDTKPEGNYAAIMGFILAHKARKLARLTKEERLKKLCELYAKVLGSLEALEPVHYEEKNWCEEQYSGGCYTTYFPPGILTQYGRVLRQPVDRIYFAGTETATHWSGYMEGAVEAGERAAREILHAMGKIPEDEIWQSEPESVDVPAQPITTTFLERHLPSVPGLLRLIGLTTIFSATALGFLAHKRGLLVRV
# MAO-A enzyme [2] = biological target: T1, MAO-A enzyme; test: MAO-A enzyme kinetics (Lineweaver-Burk plots)
# Method: The nature of MAO-A inhibition, caused by this compound, was investigated by the graphical analysis of steady-state inhibition data.
# Figure 2. […] Substrate (kynuramine) concentrations used: 40, 20, 10, 5, 2.5 and 1.25 μM. 1/V: 1/velocity of reaction [1/(nmoles/min/mg protein)], 1/S: 1/substrate concentration (1/μM).
# The same materials were used in MAO enzyme kinetic assay. The compound 2e was prepared at IC50 concentration and then added to the wells (100 µL/well). Stock solution (25 mM) of kynuramine was diluted to final concentrations of 40, 20, 10, 5, 2.5 and 1.25 µM and then added to the wells (50 µL/well). After MAO-A enzyme was added to the plate (50 µL/well), incubation period at 37 °C for 20 min was started. The plate was read at 310/340 nm excitation/emission wavelength pair[31]. Control measurement without inhibitor was also determined simultaneously. The results were analyzed in Lineweaver–Burk plots using Microsoft Office Excel 2013.
Compound,IC50 (MAO-A enzyme [1]) [mM],MAO-A inhibition % (MAO-A enzyme [1]; 10^−3 M) [%],MAO-A inhibition % (MAO-A enzyme [1]; 10^−4 M) [%],IC50 (human recombinant MAO-B) [mM],MAO B inhibition % (human recombinant MAO-B; 10^−3 M) [%],MAO B inhibition % (human recombinant MAO-B; 10^−4 M) [%],"nature of MAO-A inhibition (MAO-A enzyme [2]; Lineweaver–Burk plots, kynuramine 40-1.25 μM)","Vmax (MAO-A enzyme [2]; nonlinear regression, MAO-A, kynuramine)",MAO-A inhibition % (MAO-A enzyme [1]; 10^−5 M) [%],MAO-A inhibition % (MAO-A enzyme [1]; 10^−6 M) [%],MAO-A inhibition % (MAO-A enzyme [1]; 10^−7 M) [%],MAO-A inhibition % (MAO-A enzyme [1]; 10^−8 M) [%],MAO-A inhibition % (MAO-A enzyme [1]; 10^−9 M) [%],MAO-A versus MAO-B selectivity (MAO-A enzyme [1])
"CN1CCN(C(=S)SCC(=O)N2CCN(c3ncccn3)CC2)CC1 [Compound 2a, 2-[4-(Pyrimidin-2-yl)piperazin-1-yl]-2-oxoethyl 4-methylpiperazine-1-carbodithioate]",> 1,12.84 ± 0.59,7.33 ± 0.19,> 1,10.23 ± 0.31,5.37 ± 0.22,–,–,–,–,–,–,–,–
"CCN1CCN(C(=S)SCC(=O)N2CCN(c3ncccn3)CC2)CC1 [Compound 2b, 2-[4-(Pyrimidin-2-yl)piperazin-1-yl]-2-oxoethyl 4-ethylpiperazine-1-carbodithioate]",> 1,11.52 ± 0.38,6.86 ± 0.21,> 1,10.08 ± 0.42,5.65 ± 0.14,–,–,–,–,–,–,–,–
"O=C(CSC(=S)N1CCN(CCO)CC1)N1CCN(c2ncccn2)CC1 [Compound 2c, 2-[4-(Pyrimidin-2-yl)piperazin-1-yl]-2-oxoethyl 4-(2-hydroxyethyl)piperazine-1-carbodithioate]",> 1,15.88 ± 0.55,9.27 ± 0.27,> 1,12.30 ± 0.48,7.39 ± 0.25,–,–,–,–,–,–,–,–
"CN(C)CCN1CCN(C(=S)SCC(=O)N2CCN(c3ncccn3)CC2)CC1 [Compound 2d, 2-[4-(Pyrimidin-2-yl)piperazin-1-yl]-2-oxoethyl 4-(2-(dimethylamino)ethyl)piperazine-1-carbodithioate]",> 1,18.74 ± 0.52,7.39 ± 0.30,> 1,14.37 ± 0.58,8.40 ± 0.23,–,–,–,–,–,–,–,–
"O=C(CSC(=S)N1CCN(C2CCCCC2)CC1)N1CCN(c2ncccn2)CC1 [Compound 2e, 2-[4-(Pyrimidin-2-yl)piperazin-1-yl]-2-oxoethyl 4-cyclohexylpiperazine-1-carbodithioate]",> 1,16.75 ± 0.42,5.90 ± 0.15,> 1,12.60 ± 0.45,5.22 ± 0.18,–,–,–,–,–,–,–,–
"O=C(CSC(=S)N1CCN(c2ccccc2)CC1)N1CCN(c2ncccn2)CC1 [Compound 2f, 2-[4-(Pyrimidin-2-yl)piperazin-1-yl]-2-oxoethyl 4-phenylpiperazine-1-carbodithioate]",> 1,33.33 ± 1.30,31.25 ± 0.88,> 0.1,–,31.15 ± 0.67,–,–,–,–,–,–,–,–
"Cc1ccc(N2CCN(C(=S)SCC(=O)N3CCN(c4ncccn4)CC3)CC2)cc1 [Compound 2g, 2-[4-(Pyrimidin-2-yl)piperazin-1-yl]-2-oxoethyl 4-(p-tolyl)piperazine-1-carbodithioate]",> 1,37.50 ± 1.42,33.33 ± 0.99,> 1,18.20 ± 0.82,10.76 ± 0.33,–,–,–,–,–,–,–,–
"O=C(CSC(=S)N1CCN(c2ccc(Cl)cc2)CC1)N1CCN(c2ncccn2)CC1 [Compound 2h, 2-[4-(Pyrimidin-2-yl)piperazin-1-yl]-2-oxoethyl 4-(4-chlorophenyl)piperazine-1-carbodithioate]",> 1,13.45 ± 0.38,6.70 ± 0.22,> 1,40.98 ± 1.20,31.15 ± 1.07,–,–,–,–,–,–,–,–
"O=C(CSC(=S)N1CCN(c2ccc(F)cc2)CC1)N1CCN(c2ncccn2)CC1 [Compound 2i, 2-[4-(Pyrimidin-2-yl)piperazin-1-yl]-2-oxoethyl 4-(4-fluorophenyl)piperazine-1-carbodithioate]",> 0.1,–,39.58 ± 0.95,> 1,44.26 ± 1.13,27.86 ± 0.66,–,–,–,–,–,–,–,–
"O=C(CSC(=S)N1CCN(c2ccc([N+](=O)[O-])cc2)CC1)N1CCN(c2ncccn2)CC1 [Compound 2j, 2-[4-(Pyrimidin-2-yl)piperazin-1-yl]-2-oxoethyl 4-(4-nitrophenyl)piperazine-1-carbodithioate]",0.0231,–,–,> 0.1,–,40.98 ± 0.94,mix-typed inhibitor,5.34,42.45 ± 1.18,29.70 ± 0.72,20.19 ± 0.64,16.05 ± 0.40,11.53 ± 0.29,selective MAO-A inhibitory activity; also recorded: selective MAO-A enzyme inhibitors
O=C(CSC(=S)N1CCN(Cc2ccccc2)CC1)N1CCN(c2ncccn2)CC1 [Compound 2k],> 1,19.81 ± 0.59,6.15 ± 0.18,> 1,13.08 ± 0.56,5.87 ± 0.22,–,–,–,–,–,–,–,–
"Cc1ccc(CN2CCN(C(=S)SCC(=O)N3CCN(c4ncccn4)CC3)CC2)cc1 [Compound 2l, 2-[4-(Pyrimidin-2-yl)piperazin-1-yl]-2-oxoethyl 4-(4-methylbenzyl)piperazine-1-carbodithioate]",> 1,32.31 ± 0.86,15.38 ± 0.61,–,–,15.00 ± 0.68,–,–,–,–,–,–,–,–
"O=C(CSC(=S)N1CCN(C(c2ccccc2)c2ccccc2)CC1)N1CCN(c2ncccn2)CC1 [Compound 2m, 2-[4-(Pyrimidin-2-yl)piperazin-1-yl]-2-oxoethyl 4-benzhydrylpiperazine-1-carbodithioate]",0.0241,–,–,> 0.1,–,40.00 ± 0.99,–,–,33.65 ± 0.93,28.16 ± 0.87,21.88 ± 0.74,15.77 ± 0.68,10.62 ± 0.41,selective MAO-A inhibitory activity; also recorded: selective MAO-A enzyme inhibitors
"O=C(CSC(=S)N1CCN(c2ncccn2)CC1)N1CCN(c2ncccn2)CC1 [Compound 2n, 2-[4-(Pyrimidin-2-yl)piperazin-1-yl]-2-oxoethyl 4-(pyrimidin-2-yl)piperazine-1-carbodithioate]",> 1,31.25 ± 0.94,25.00 ± 0.62,> 1,29.51 ± 0.74,22.95 ± 0.69,–,–,–,–,–,–,–,–
